Test results published in patent US20240139151A1, “COMPOSITION INCLUDING DECURSINOL AS ACTIVE INGREDIENT FOR PREVENTING OR TREATING SMOOTH MUSCLE CELL PROLIFERATIVE DISEASES” (KYUNGSUNG UNIVERSITY INDUSTRY COOPERATION FOUNDATION, priority 2021, published 2024).
“Also recorded” adds a separate entry of the source.

Legend:
in vitro = settings: rat, IC50, concentration at which the growth of the cells is inhibited by 50% (cytotoxicity)
Procedure: (§1) The vascular smooth cell line A10 was loaded at a density of 1×10^3 cells/ml into 96-well plates and after 16 hours, the medium was replaced with a medium having a concentration of 5.5 mM or 30 mM D-glucose. Subsequently, decursin, decursinol angelate and decursinol were each applied at concentrations of 0, 20, 50, 100, 200, and 500 μM to the cells. IC50, a concentration at which the growth of the cells is inhibited by 50%, and EC100, a concentration which inhibits the growth of cells in a high sugar level environment to a normal cell population, were measured, and therapeutic indices were calculated by dividing IC50 by EC100. […] Then, effects of decursin and decursinol angelate to inhibit the proliferation of A10 cells in high glucose were expressed as EC100. EC100 refers to the concentration at which high glucose-induced proliferation of A10 cells is inhibited to normal glucose levels by the drug.

[1] = tested on: vascular smooth cell line A10; assay: Inhibition of high glucose-induced proliferation of A10 cells (EC100); format: cell-based; settings: 30 mM D-glucose, 0-500 μM
Procedure: as §1

[2] = Cytotoxicity (IC50) on A10 cells; settings: rat, A10 vascular smooth muscle cells, IC50, concentration at which the growth of the cells is inhibited by 50% (cytotoxicity), 0-500 μM, cytotoxicity under normal glucose conditions
Procedure: as §1

[3] = tested on: vascular smooth muscle cell line A10; assay: Cytotoxicity of decursinol, live and dead cell count; format: cell-based; settings: live and dead cells counted
Description: In order to examine the cytotoxicity of decursinol, both live and dead cells were counted. After treatment with decursinol, 98% or more of live cells were observed alive.

[4] = tested on: phospho-protein kinase C (p-PKC); assay: Western blotting of phospho-PKC with a pan-phospho-PKC antibody in A10 cells; format: cell-based; settings: 30 mM D-glucose, 10 and 25 μM solubilized decursinol, 24 hours
Procedure: Examination was made to see whether the inhibitory effect of decursinol on high sugar-induced proliferation of A10 cells was associated with PKC. […] Then, each well was treated with 10 and 25 μM of solubilized decursinol and incubated for 24 hours. Western blotting was carried out using a pan-phospho-PKC antibody and the results are depicted in FIG. 5.

[5] = Blood pressure safety test in rats after two weeks of oral administration; format: in vivo; settings: measured the day after final administration
Description: The present inventors have been studying Angelica gigas Nakai for many years while observing the effect of Angelica gigas Nakai extract on blood pressure. In general, Angelica gigas Nakai is a traditional herb that has been used for food and medicine for a long time because of its excellent hematopoietic, anticancer, antioxidant, and anti-inflammatory actions. However, direct use of the Angelica gigas extract has the problem of inducing high blood pressure according to the preparation thereof. In this Example, the Angelica extracts obtained in Examples 1-1 and 1-2 and 99.9% pure decursinol of the present disclosure were administered to rats and assayed for safety for blood pressure.
Using a blood pressure analyzer (3R229 3 channel rat system, Life Science), rats were measured for blood pressure while being acclimated to blood measurement operation. When the blood pressure analyzer is being operated, laboratory rats are startled by the sound of air pressure and rise in blood pressure. In order to eliminate this effect, after adaptation by repeatedly measuring 5 times a day, the experiment was performed when the blood pressure was kept stable, and the blood pressure was regularly measured every day even during the experiment to adapt the rats to the analyzer. When measuring blood pressure, the head was covered with a handkerchief to block light for stabilization. Fifteen experimental rats were divided into 5 groups of 3 rats for the next administration experiment and measured for blood pressure. A control (physiological saline), the Angelica extracts, and decursinol were each orally administered for two weeks, and the blood pressures measured the next day after the final administration are given in Table 1.

[6] = tested on: vascular smooth cell line A10; settings: rat
Procedure: as §1

[7] = tested on: vascular smooth muscle cell line A10; assay: Effect of decursinol on high sugar-induced proliferation of A10 cells (cell count); format: cell-based
Procedure: The effect of decursinol on the high sugar-induced proliferation of A10 cells was investigated. […] Then, each well was treated with 25 μM of solubilized decursinol, and the cells were counted after 1, 2, and 3 days. The results are depicted in FIG. 4.

In the case of `CC(C)=CC(=O)O[C@H]1Cc2cc3ccc(=O)oc3cc2OC1(C)C` [Decursin, decursin], the IC50 (in vitro) is reported as 82.7 µM and the “EC100, concentration at which high glucose-induced proliferation of A10 cells is inhibited to normal glucose levels” value [1] is reported as 7.2 µM.

For `C/C=C(/C)C(=O)O[C@H]1Cc2cc3ccc(=O)oc3cc2OC1(C)C` [Decursinol angelate, decursinol angelate], the IC50 [2] was 124 µM and the “EC100, concentration at which high glucose-induced proliferation of A10 cells is inhibited to normal glucose levels” value [1] was 4.4 µM.

With `CC1(C)Oc2cc3oc(=O)ccc3cc2C[C@@H]1O` [Decursinol, decursinol] the IC50 (in vitro) was ≥ 500 µM, the “Live cells after treatment with decursinol” value [3] was ≥ 98% and the “Expression level of phospho-PKC in high sugar” value [4] was “significantly decreased the increased expression level of phospho-PKC in high sugar in a dose-dependent manner”. For the same molecule, the Diastolic blood pressure ([5]; 0.5 mg/kg) was 91 mmHg, the Systolic blood pressure ([5]; 0.5 mg/kg) was 110 mmHg and the Diastolic blood pressure ([5]; 1.0 mg/kg) was 92 mmHg. It also gave a Systolic blood pressure ([5]; 1.0 mg/kg) of 110 mmHg, a Diastolic blood pressure ([5]; 2.0 mg/kg) of 92 mmHg and a Systolic blood pressure ([5]; 2.0 mg/kg) of 117 mmHg. The Diastolic blood pressure ([5]; 5.0 mg/kg) was 90 mmHg, the Systolic blood pressure ([5]; 5.0 mg/kg) was 115 mmHg and the IC50 [6] was > 500 µM. For the same molecule, the “Effect on proliferation of A10 cells at normal sugar concentration” value ([7]; 5.5 mM D-glucose, 25 μM solubilized decursinol, days 1-3) was “did not significantly inhibit; also recorded: not affected”, the “Effect on proliferation of A10 cells in high glucose” value ([7]; 30 mM D-glucose) was “significantly inhibited; also recorded: inhibited cell proliferation in a dose-dependent manner” and the “Inhibition of proliferation of A10 cells in high glucose” value ([7]; 30 mM D-glucose, 25 μM solubilized decursinol, day 3) was “about 20%”. For the same molecule, the “EC100, concentration at which high glucose-induced proliferation of A10 cells is inhibited to normal glucose levels” value [1] was 10.1 µM.
